This note sets out measurements from patent US12024504B2, “1-methyl-1H-pyrazol-3-yl derivatives for use in the treatment of neovascular diseases” (EXONATE LIMITED, priority 2021, dated 2024).

The structures appear in SMILES notation.

For series [1], the system named is choroidal neovascularisation. As to the kind of experiment: Laser-induced choroidal neovascularisation (CNV). It is filed as in vivo, C57/B6 mice. How it is done: 6-8 week-old female C57/B6 mice were anesthetized with an intraperitoneal injection of a mixture of 50 mg/kg ketamine and 0.5 mg/kg medetomidine. The pupils were immediately dilated by topical (eyedrop) application with a dilator such as 5% phenylephrine hydrochloride and 1% tropicamide. Four photocoagulation lesions were delivered with a green Merilas 532α laser (450 mW, 130 ms) between the “large” retinal vessels in clear space with no vessels in a peripapillary distribution at a distance of 1-2 disc-diameters in each eye. Only clean laser lesions with a subretinal bubble at the time of treatment were included in the study. Immediately following laser photocoagulation the animals were given topical eye drops of candidate compounds twice daily at 2 μg/mL, 0.2 μg/mL or 0.066 μg/mL or eye drop formulation control as indicated (10 μL, eyes held for 30 seconds to prevent animal wiping drop away). Experiments were performed with an initial eye drop formulation containing 1% hydroxypropyl methyl cellulose, 0.2% tyloxapol, 3.4% dextrose, 0.006% benzalkonium chloride, and 0.025% ethylenediaminetetraacetic acid with 1% DMSO in PBS and data were confirmed in a second eye drop formulation containing 7% poly-oxyl-40-stearate and 4% dextrose in PBS.
After one week, mice were anesthetized with an intraperitoneal injection of a mixture of 50 mg/kg ketamine and 0.5 mg/kg medetomidine. […]

Series [2] can be described thus: Non-human primate pharmacokinetic study (eye drops). Format: in vivo, Cynomolgus monkeys. The protocol: Non-human primate pharmacokinetic study Cynomolgus monkeys were treated bidaily for 20 days with 35 μL eye drops of compound 1 at 0.5 mg/mL, 1.0 mg/mL or 1.5 mg/ml as indicated, in the eye drop formulation containing 7% poly-oxyl-40-stearate and 4% dextrose in PBS. Blood and aqueous samples were collected 1 h, 4 h, 8 h, 10 h and 14 h after eye drop administration on day 1 and at the end of the study. 1 h after the final eye drop on day 21, the animals were euthanised and ocular tissues and blood were collected. The retina was dissected from the choroid and sclera, incisions made, and laid out flat. Retina, RPE/choroid and sclera eye compartments were dissected into 7 different areas. All samples were weighed. Compound was extracted by reverse phase extraction from the retina and choroid/sclera samples and the plasma as above, and amount determined by mass spectrometry in different areas of the eye and in the blood. Amounts per milligram of tissue or nM for aqueous and blood were calculated for each sample, and averaged.
To determine whether compound 1 could penetrate into the retina of primates we dosed cynomologous monkeys with 0.5, 1.0 or 1.5 mg/mL compound 1 twice a day for 21 days. […] Aqueous taps and plasma samples were taken during the treatment and compound 1 measured in the fluid. […] To determine if these doses were sufficient to inhibit angiogenic VEGF-A isoform expression, retinal tissue was subjected to immunoblotting using pan-VEGF or VEGF-A165b antibodies.

As a reminder, the half-life is the time in which the quantity being followed falls by half. A high value points to slow decline. For `Cn1ccc(CN2CCN(c3ccc(C(F)(F)F)cc3NC(=O)c3ccc(C4CCOCC4)o3)CC2)n1` [Compound 1, N-(2-(4-((1-methyl-1H-pyrazol-3-yl)methyl)piperazin-1-yl)-5-(trifluoromethyl)phenyl)-5-(tetrahydro-2H-pyran-4-yl)furan-2-carboxamide], the “Anti-angiogenic activity on lesion size versus reference compounds” value in series [1] (laser-induced mouse model of CNV, FIG. 7) is “same anti-angiogenic activity on lesion size as reference compounds”. For the same compound, the “Inhibition of choroidal neovascularisation” value in series [1] (mouse, eye drops twice daily at 0.066 μg/mL, FIG. 7b) was “significantly inhibited”. The compound further showed a half-life in series [2] (cynomolgus, cynomolgus monkey, aqueous humour, topical or ocular, monkey, after administration of 1.5 mg/mL eye drop) of 2 h. Moreover, the “Concentrations in retina, choroid, vitreous and other tissues of the eye” value in series [2] (monkey, 0.5, 1.0 or 1.5 mg/mL twice a day for 21 days) is listed as “significant concentrations”. In series [2] (monkey, all three doses (0.5, 1.0, 1.5 mg/mL)), the “Concentrations in aqueous taps and plasma samples” value is given as “Significant concentrations were seen at all three doses”.
